US4786755A, “Diphenic acid monoamides” (Warner-Lambert Company, priority 1986, dated 1988)

Biological target: T1, 5-lipoxygenase (Homo sapiens, UniProt P09917)
T1 construct: endogenous in cells; host or cells: leukocytes isolated from fresh human blood
T1 sequence (P09917 1-674): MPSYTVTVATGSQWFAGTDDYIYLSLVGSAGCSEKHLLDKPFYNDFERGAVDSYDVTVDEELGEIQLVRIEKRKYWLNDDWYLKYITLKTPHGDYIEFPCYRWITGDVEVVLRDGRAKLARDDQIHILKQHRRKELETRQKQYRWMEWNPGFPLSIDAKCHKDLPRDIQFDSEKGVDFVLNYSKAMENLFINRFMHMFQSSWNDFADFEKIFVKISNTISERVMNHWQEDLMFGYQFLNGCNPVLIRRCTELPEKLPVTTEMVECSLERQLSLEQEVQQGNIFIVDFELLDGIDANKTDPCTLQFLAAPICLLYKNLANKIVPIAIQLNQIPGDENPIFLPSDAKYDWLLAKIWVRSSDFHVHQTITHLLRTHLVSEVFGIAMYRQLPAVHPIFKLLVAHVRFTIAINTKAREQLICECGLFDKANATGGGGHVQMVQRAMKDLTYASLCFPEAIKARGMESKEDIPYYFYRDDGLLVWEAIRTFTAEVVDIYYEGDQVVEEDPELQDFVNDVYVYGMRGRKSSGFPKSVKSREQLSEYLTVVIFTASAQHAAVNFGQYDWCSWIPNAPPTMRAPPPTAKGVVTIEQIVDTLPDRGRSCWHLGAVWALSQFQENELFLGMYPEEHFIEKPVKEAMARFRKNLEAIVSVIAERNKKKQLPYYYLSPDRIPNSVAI
Test: 5-Lipoxygenase Assay Using Isolated Human Leukocytes (5LOA2)
Assay type: cell-based
Details: 20 μM exogenous arachidonic acid; read-out: IC50 5LOA (20)*
Protocol: 5-Lipoxygenase Assay Using Isolated Human Leukocytes (5LOA2)
The formation of 5-HETE in human leukocytes is considered a measure of 5-lipoxygenase activity. The protocol is described in the following.
Fresh heparinized or EDTA treated human blood is mixed with 6% dextran-3% dextrose in isotonic saline in the ratio 0.25 ml dextran solution per 1.0 ml blood. After mixing the blood is allowed to sit at room temperature for about 90 minutes while the RBC's settle. During this period, the plasma is removed with a plastic pipette to nalgens tubes.
The plasma is centrifuged at 800 rpm ([…]) on the Beckman Td-b refrigerated centrifuge to remove the platelets (which remain in the supernatant). The pellet, consisting of leukocytes and erythrocytes, is treated with 10 ml 0.87% ammonium chloride at room temperature for four minutes, lysing the red cells. At the end of four minutes the cells are diluted with a 2× volume of phosphate buffered saline, pH 7.4, and centrifuged for ten minutes. The cells are washed three times with the phosphate buffered saline. Any of the pelleted cell matter which is not easily resuspended is discarded during the washings--the material contains platelets (12-lipoxygenase activity).
After washing, the cells are resuspended in phosphate buffered saline containing 1.0 mM calcium and 0.5 mM magnesium. After counting the cells are diluted to 1.5-2.0×10^7 leukocytes per milliliter.
To each polypropylene reaction tube is added 0.48 ml leukocytes in Ca-Mg phosphate buffered saline, pH 7.4; 1-5 μl test compound dissolved in DMSO and buffer; or DMSO for control tubes.
The tubes preincubate at 37° C. for five minutes.
The reaction is started by adding 20 μl of the following, 0.5 μl 20 mM arachidonic acid--final concentration=20 μm; 1 μl 5 mM calcium ionophore A23187--final concentration=10 μm; and 18.5 μl buffer.
The reaction proceeds for five minutes, then is stopped by adding 0.5 ml 0.5 mM ice cold Tris buffer, pH 8.0. The tubes are chilled on ice for ten minutes and then extracted three times with a total of 3.5 ml ethyl acetate (3.0 ml removed).
The tubes can be stored at this point. For extended storage, the tubes should be filled with nitrogen.
The ethyl acetate is evaporated with a Sorvall Speed-Vac. The residue is dissolved in ethanol. The tubes can also be stored at this point at -20° C. under nitrogen.
A portion of the ethanol solution is injected into the HPLC system for 5-HETE quantitation.
The HPLC system consists of Hewlett-Packard 1040A UV spectrophotometry system with an HP85 computer. Injections are made automatically with a Waters WISP 710B. The pump is a Spectra Physics SP8700. Peaks are measured with a Hewlett Packard 3390A integrator. An RP C-18 column is used. The solvent system is isocratic; the solvent is 70% methanol and 30% 0.01M sodium acetate, pH 5.7, pumped at 1.0 ml/min. The flow is monitored at 235 nm for 5-HETE quantitation. Using a 15 cm Alltech Nucleosil C-18 5 μM column provides for a sample turnaround time of about 16 minutes.
IC50 is calculated as the amount of test agent that causes 50% inhibition of the formation of 5-HETE relative to the control.

SMILES | IC50
O=C(O)c1ccccc1-c1ccccc1C(=O)Nc1ccc(CCCc2ccc(Cl)c(Cl)c2)cc1 [Example 1, [1,1'-Biphenyl]-2-carboxylic acid, 2'-[[[4-[3-(3,4-dichlorophenyl)propyl]phenyl]amino]carbonyl]-] | 6.7 µM
COc1ccc(CCc2ccc(NC(=O)c3ccccc3-c3ccccc3C(=O)O)cc2)cc1OC [Example 7, [1,1'-Biphenyl]-2-carboxylic acid, 2'-[[[4-[2-(3,4-dimethoxyphenyl)ethyl]phenyl]amino]carbonyl]-] | > 20 µM
O=C(O)c1ccccc1-c1ccccc1C(=O)Nc1ccc(Cc2ccc(Cl)c(Cl)c2)cc1 [Example 9] | 19 µM
O=C(O)c1ccccc1-c1ccccc1C(=O)Nc1ccc(CCCCc2ccc(Cl)c(Cl)c2)cc1 [Example 15, [1,1'-Biphenyl]-2-carboxylic acid, 2'-[[[4-[4-(3,4-dichlorophenyl)butyl]phenyl]amino]carbonyl]-] | 4.6 µM
O=C(O)c1ccccc1-c1ccccc1C(=O)Nc1ccc(CCCc2ccccc2)cc1 [Example 16, [1,1'-Biphenyl]-2-carboxylic acid, 2'-[[[4-(3-phenylpropyl]phenyl]amino]carbonyl]-] | 22 µM
O=C(O)c1ccccc1-c1ccccc1C(=O)Nc1ccc(CCCCc2ccccc2)cc1 [Example 19, [1,1'-Biphenyl]-2-carboxylic acid, 2'-[[[4-(4-phenylbutyl)phenyl]amino]carbonyl]-] | 7.2 µM
